Common to all, as to type: cell-based, rat
Assay [1] concerns cortical neuronal cells. Kind of assay: Oxygen and glucose deprivation assay (in vitro model of ischemia), neurite network by MAP2. The note with it: alone or combined. The procedure:
B—Protective Effect Against Ischemia/Hypoxia Induced Neuronal Cell Death Rat Neuronal Cortical Cells Preparation
Cells are prepared as previously.
The neuroprotective effect of compounds is assessed by quantification of the neurite network using MAP2 antibody. Riluzole, a neuroprotective drug, (Riluteck®, 5 μM) is used as positive control.
After 10 days of neuron culture, candidate drugs are solved in culture medium (+0.1% DMSO) and then pre-incubated with neurons for 1 hour before the oxygen and glucose deprivation. One hour after candidate drug incubation, the medium is removed and fresh medium without glucose is added. This medium is composed by DMEM without glucose (Invitrogen) supplemented with 2% B27, 0.2 mM L-glutamine, 1% PS solution, 10 ng/ml of BDNF. The cells are transferred into an anaerobic incubator with 95% N2 and 5% CO2 at 37° C.
After 2 hours, 25 mM of D-Glucose will be added in culture medium and cells are transferred in classic incubator with 95% air/5% CO2 at 37° C. After 24 hours of oxygen glucose reperfusion, cells are fixed by a cold solution of alcohol/acetic acid during 5 minutes.
After permeabilization with saponin (Sigma), cells are blocked for 2 hours with PBS containing 10% goat serum, then the cells are incubated with mouse monoclonal primary antibody against MAP2 (MAP2, Sigma).
Nuclei of cells are labelled by a fluorescent marker (Hoechst solution, SIGMA). Six wells per condition are used to assess neuronal survival in 3 different cultures.
For each condition 2×10 pictures per well are taken and analyzed using InCell Analyzer TM 1000 (GE Healthcare) with 20× magnification.

Assay [2] deals with neuronal cortical cells. The assay can be described thus: Glutamate toxicity assay, neurite network (neurofilament immunostaining) of primary cortical neurons. The note with it: alone or combined. How it is done:
Glutamate toxicity is involved in the pathogenesis of Parkinson's disease. In this set of experiment, candidate compounds have been tested for their ability to prevent or reduce the toxic effects of glutamate toxicity on neuronal cells. The drugs are first tested individually, followed by assays of their combinatorial action.
The efficacy of drug combinations of the invention is assessed on primary cortical neuron cells.
Rat cortical neurons were cultured as described by Singer et al.. Briefly pregnant female rats of 15 days gestation were killed by cervical dislocation (Rats Wistar) and the foetuses were removed from the uterus. The cortex was removed and placed in ice-cold medium of Leibovitz (L15) containing 2% of Penicillin 10.000 U/ml and Streptomycin 10 mg/ml and 1% of bovine serum albumin (BSA). Cortices were dissociated by trypsin for 20 min at 37° C. (0.05%). The reaction was stopped by the addition of Dulbecco's modified Eagle's medium (DMEM) containing DNaseI grade II and 10% of foetal calf serum (FCS). Cells were then mechanically dissociated by 3 serial passages through a 10 ml pipette and centrifuged at 515 g for 10 min at +4° C. The supernatant was discarded and the pellet of cells was re-suspended in a defined culture medium consisting of Neurobasal supplemented with B27 (2%), L-glutamine (0.2 mM), 2% of PS solution and 10 ng/ml of BDNF. Viable cells were counted in a Neubauer cytometer using the trypan blue exclusion test. The cells were seeded at a density of 30 000 cells/well in 96 well-plates (wells were pre-coated with poly-L-lysine (10 μg/ml)) and were cultured at +37° C. in a humidified air (95%)/CO2 (5%) atmosphere.
After 12 days of neuron culture, drugs of the candidate combinations are solved in culture medium (+0.1% DMSO). Candidate combinations are then pre-incubated with neurons for 1 hour before the glutamate injury. One hour after incubation with, glutamate is added for 20 min, to a final concentration of 40 μM, in presence of candidate combinations, in order to avoid further drug dilutions. At the end of the incubation, medium is changed with medium with candidate combination but without glutamate. The culture is fixed 24 hours after glutamate injury. MK801 (dizocilpinehydrogen maleate, 77086-22-7-20 μM) is used as a positive control.
After permeabilization with saponin (Sigma), cells are blocked for 2 h with PBS containing 10% goat serum, then the cells are incubated with mouse monoclonal primary antibody against Neurofilament antibody (NF, Sigma).
Nuclei of cells are labeled by a fluorescent marker (Hoechst solution, SIGMA), and neurite network quantified. Six wells per condition are used to assess neuronal survival in 3 different cultures.

Assay [3] deals with dopaminergic neuronal cells. The assay can be described thus: 6-OHDA injury on mesencephalic dopaminergic neurons, number of TH positive neurons. The procedure: 6-hydroxydopamine (6-OHDA) is a neurotoxic drug which selectively initiates neuronal degeneration of dopaminergic neurons by generating reactive oxygen species and mitochondrial respiratory dysfunction which are thought to mirror events occurring in Parkinsonian brain. 6-OHDA toxicity is commonly used in vitro and in vivo to study Parkinsonism.
Rat dopaminergic neurons were cultured as described by Schinelli et al.. Pregnant female rats of 15 days gestation were killed by cervical dislocation (Rats Wistar; Janvier) and the foetuses removed from the uterus. The embryonic midbrains were removed and placed in ice-cold medium of Leibovitz (L15; PanBiotech) containing 2% of Penicillin-Streptomycin (PS; PanBiotech) and 1% of bovine serum albumin (BSA; PanBiotech). Only the ventral portions of the mesencephalic flexure were used for the cell preparations as this is the region of the developing brain rich in dopaminergic neurons. The midbrains were dissociated by trypsinisation for 20 min at 37° C. (Trypsin EDTA 1×; PanBiotech). The reaction is stopped by the addition of Dulbecco's modified Eagle's medium (DMEM; PanBiotech) containing DNAase I grade II (0.1 mg/ml; PanBiotech) and 10% of foetal calf serum (FCS; Invitrogen). Cells were then mechanically dissociated by 3 passages through a 10 ml pipette and centrifuged at 180×g for 10 min at +4° C. on a layer of BSA (3.5%) in L15 medium. The supernatant was discarded and the cells of pellet were re-suspended in a defined culture medium consisting of Neurobasal (Invitrogen) supplemented with B27 (2%; Invitrogen), L-glutamine (2 mM; PanBiotech) and 2% of PS solution and 10 ng/ml of Brain-derived neurotrophic factor (BDNF, PanBiotech) and 1 ng/ml of Glial-Derived Neurotrophic Factor (GDNF, PanBiotech). Viable cells were counted in a Neubauer cytometer using the trypan blue exclusion test. The cells were seeded at a density of 40 000 cells/well in 96 well-plates (pre-coated with poly-L-lysine (Greiner)) and are cultured at 37° C. in a humidified air (95%)/CO2 (5%) atmosphere. Half of the medium was changed every 2 days with fresh medium. Five to six percent of the neuronal cell population were dopaminergic neurons.
On day 6 of culture, the medium was removed and fresh medium was added, without or with 6-OHDA at the following concentrations: 20 μM during 48 hours diluted in control medium. Test compounds were pre-incubated for 1 h before the 6-OHDA application during 48 hours.
After 48 hours of intoxication with 6-OHDA, cells were fixed by a solution of 4% paraformaldehyde (Sigma) in PBS, pH=7.3 for 20 min at room temperature. The cells were washed again twice in PBS, and then permeabilized and non-specific sites were blocked with a solution of PBS containing 0.1% of saponin (Sigma) and 1% FCS for 15 min at room temperature. Then, cells were incubated with Monoclonal Anti-Tyrosine Hydroxylase antibody produced in mouse (TH, Sigma) at dilution of 1/1000 in PBS containing 1% FCS, 0.1% saponin, for 2 hours at room temperature.
For each condition, 2×10 pictures (representing ˜80% of total well area) per well were taken using InCell Analyzer™ 1000 (GE Healthcare) with 10× magnification. All images were taken in the same conditions. […]
Data are expressed in percentage of control conditions (no intoxication, no 6-OHDA=100%) in order to express the 6-OHDA injury. All values are expressed as mean+/−SEM (s.e. mean) of the 3 cultures (n=6 wells per condition per culture). […]

[4] abbreviates: FIG. 4: baclofen 80 nM, acamprosate 0.32 nM.
Where [5] appears, read: FIG. 3: baclofen 400 nM, acamprosate 1.6 nM.
Where [6] appears, read: FIG. 12A: baclofen 32 nM alone, acamprosate 10 pM alone.
Where [7] appears, read: FIG. 12B: baclofen 32 nM alone, acamprosate 4 pM alone.
The mark [8] stands for this setting: FIG. 6: cinacalcet 64 pM, mexiletine 25.6 pM.
The mark [9] stands for this setting: FIG. 1: cinacalcet 64 pM, mexiletine 25.6 pM.
Setting [10] is: FIG. 5: sulfisoxazole 1.36 nM, torasemide 80 nM.
[11] abbreviates: FIG. 2: sulfisoxazole 6.8 nM, torasemide 400 nM.

With `CC(=O)NCCCS(=O)(=O)O` [acamprosate], the “protection against ischemic injury” value in assay [1] (setting [4]) was “no significant protection”. Further, the “prevention of glutamate intoxication” value in assay [2] (setting [5]) was “no significant effect”. Further, the “protection from 6-OHDA injury, single drugs” value in assay [3] (setting [6]) and in assay [3] (setting [7]) was “low effect” in each case.

Turning to `NCC(CC(=O)O)c1ccc(Cl)cc1` (centres unmarked) [baclofen], the “protection against ischemic injury” value in assay [1] (setting [4]) is listed as “no significant protection”. The “prevention of glutamate intoxication” value in assay [2] (setting [5]) was “no significant effect”. Also, the “protection from 6-OHDA injury, single drugs” value in assay [3] (setting [6]) and in assay [3] (setting [7]) was “low effect” in each case.

As to `C[C@@H](NCCCc1cccc(C(F)(F)F)c1)c1cccc2ccccc12` [cinacalcet], the “protection against ischemic injury” value in assay [1] (setting [8]) is listed as “No significant protection”. Moreover, the “prevention of glutamate intoxication” value in assay [2] (setting [9]) is reported as “no significant effect”.

Regarding `Cc1cccc(C)c1OCC(C)N` (centres unmarked) [mexiletine], the “protection against ischemic injury” value in assay [1] (setting [8]) was “No significant protection”. In assay [2] (setting [9]), the “prevention of glutamate intoxication” value is “no significant effect”.

As to `Cc1noc(NS(=O)(=O)c2ccc(N)cc2)c1C` [sulfisoxazole], in assay [1] (setting [10]), the “protection against ischemic injury” value is “no significant protection”. For the same molecule, the “prevention of glutamate intoxication” value in assay [2] (setting [11]) was “no significant effect”.

Regarding `Cc1cccc(Nc2ccncc2S(=O)(=O)NC(=O)NC(C)C)c1` [torasemide], the “protection against ischemic injury” value in assay [1] (setting [10]) was “no significant protection”. Also, the “prevention of glutamate intoxication” value in assay [2] (setting [11]) is “no significant effect”.

B1: BDNF: Brain-derived neurotrophic factor, used as a positive control (protein, UniProt P23560 129-247, looked up)
Neurotrophic factor BDNF: HSDPARRGELSVCDSISEWVTAADKKTAVDMSGGTVTVLEKVPVSKGQLKQYFYETKCNPMGYTKEGCRGIDKRHWNSQCRTTQSYVRALTMDSKKRIGWRFIRIDTSCVCTLTIKRGR
modifications: Neurotrophic factor BDNF
notes: Brain-derived neurotrophic factor, used as a positive control
With B1, the “protection of dopaminergic neurons from 6-OHDA injury” value in assay [3] (1.85 nM, one hour pre-treatment, positive control) is “significantly protected”.

Values taken from patent US9248111B2, “Therapeutic approaches for treating parkinson's disease” (PHARNEXT, priority 2011, dated 2016).
